Data from patent US20210196724A1, “BIARYL COMPOSITIONS AND METHODS FOR MODULATING A KINASE CASCADE” (Athenex, Inc., priority 2016, published 2021).

Legend:
Format in all cases: cell-based
HCT-15 cells = test: CellTiter-Glo cell viability, HCT-15; details: Homo sapiens, 72 h
Procedure: (§1) The cell viability of 50 cancer cell lines was studied after treatment with Compound 121. Inhibition concentration values at 50% (IC50) were determined using CellTiter-Glo luminescent cell viability assay after incubation with different compound concentrations. GI50 values were determined according to the examples described above. Each cell line was treated with Compound 121, a standard chemotherapy drug as a reference control, and culture medium as a vehicle control.
(§2) All cells were cultured in media supplemented with 10-15% FBS at 37° C. in the presence of 5% CO2 and at 95% humidity. The culture medium was purchased from GIBCO or Sigma, USA. Cisplatin was chosen as the reference control and purchased from Hospira Australia Pty Ltd. The cell lines studied are presented in Table 5.
(§3) Cells were harvested during a logarithmic growth period and cell number count was determined using Count-star. Cell concentrations were adjusted to 4.44×10^4 cells/mL with respective culture medium. 90 μL of cell suspensions were added to two 96-well plates (plates A and B) with a final cell density of 4×10^3 cells/well.
(§4) 10 μL of culture medium was added to each well of plate A for TO reading. The plate was allowed to equilibrate at room temperature for approximately 30 min. 50 μL of CellTiter-Glo was added to each well and the contents were mixed for 5 min on an orbital shaker to induce cell lysis. The plate was allowed to incubate at room temperature for 20 min to stabilize luminescent signal.
(§5) 10 μM Compound 121 in media was serially diluted 3.16-fold to achieve 9 dose levels. Similarly, 100 μM reference control in media was serially diluted 3.16-fold to prepare reference control solutions. 10 μL drug solution and 10 μL of reference control was dispensed into each well in plate B.
(§6) Test plate B was incubated for 72 h in a humidified incubator at 37° C. in the presence of 5% CO2 and then subjected to CTG assay. The plate was allowed to equilibrate at room temperature for about 30 min. 50 μL of CellTiter-Glo was added to each well and the contents were mixed for 5 min on an orbital shaker to induce cell lysis. The plate was allowed to incubate at room temperature for 20 min to stabilize luminescent signal.
(§7) IC50 and GI50 values for each of the 50 cell lines are presented in Table 6 and were calculated based on the dose-response curves depicted in FIGS. 1-50. The dose-response curves were fitted using nonlinear regression model with a sigmoidal dose response. The formula for calculating survival rate was calculated by the formula:
(§8) Survival rate (%)=(LumTest article−LumMedium control)/(LumNone treated−LumMedium control)×100.

AsPC-1 cells = test: CellTiter-Glo cell viability, AsPC-1; details: Homo sapiens, ASPC1, 72 h
Procedure: as §1, §2, §3, §4, §5, §6, §7, §8

NCI-H209 cells = test: CellTiter-Glo cell viability, NCI-H209; details: Homo sapiens, 72 h
Procedure: as §1, §2, §3, §4, §5, §6, §7, §8

HT-29 cells = test: CellTiter-Glo cell viability, HT-29; details: Homo sapiens, 72 h
Procedure: as §1, §2, §3, §4, §5, §6, §7, §8

MDA-MB-453 cells = test: CellTiter-Glo cell viability, MDA-MB-453; details: Homo sapiens, 72 h
Procedure: as §1, §2, §3, §4, §5, §6, §7, §8

MX-1 cells = test: CellTiter-Glo cell viability, MX-1; details: Homo sapiens, MX1, 72 h
Procedure: as §1, §2, §3, §4, §5, §6, §7, §8

AN3 CA cells = test: CellTiter-Glo cell viability, AN3 CA; details: Homo sapiens, 72 h
Procedure: as §1, §2, §3, §4, §5, §6, §7, §8

786-O cells = test: CellTiter-Glo cell viability, 786-O; details: Homo sapiens, 786-0, 72 h
Procedure: as §1, §2, §3, §4, §5, §6, §7, §8

A-172 cells = test: CellTiter-Glo cell viability, A-172; details: Homo sapiens, 72 h
Procedure: as §1, §2, §3, §4, §5, §6, §7, §8

HL-60 cells = test: CellTiter-Glo cell viability, HL-60; details: Homo sapiens, 72 h
Procedure: as §1, §2, §3, §4, §5, §6, §7, §8

JEG-3 cells = test: CellTiter-Glo cell viability, JEG-3; details: Homo sapiens, 72 h
Procedure: as §1, §2, §3, §4, §5, §6, §7, §8

TJ905 cells = test: CellTiter-Glo cell viability, TJ905; details: 72 h
Procedure: as §1, §2, §3, §4, §5, §6, §7, §8

KARPAS-299 cells = test: CellTiter-Glo cell viability, KARPAS-299; details: Homo sapiens, 72 h
Procedure: as §1, §2, §3, §4, §5, §6, §7, §8

SK-N-FI cells = test: CellTiter-Glo cell viability, SK-N-FI; details: Homo sapiens, 72 h
Procedure: as §1, §2, §3, §4, §5, §6, §7, §8

FaDu cells = test: CellTiter-Glo cell viability, FaDu; details: Homo sapiens, 72 h
Procedure: as §1, §2, §3, §4, §5, §6, §7, §8

HT-1376 cells = test: CellTiter-Glo cell viability, HT-1376; details: Homo sapiens, 72 h
Procedure: as §1, §2, §3, §4, §5, §6, §7, §8

OVCAR-3 cells = test: CellTiter-Glo cell viability, OVCAR-3; details: Homo sapiens, 72 h
Procedure: as §1, §2, §3, §4, §5, §6, §7, §8

HeLa cells = test: CellTiter-Glo cell viability, HeLa; details: Homo sapiens, 72 h
Procedure: as §1, §2, §3, §4, §5, §6, §7, §8

HuCCT1 cells = test: CellTiter-Glo cell viability, HuCCT1; details: Homo sapiens, HuCCT-1, 72 h
Procedure: as §1, §2, §3, §4, §5, §6, §7, §8

NCI-H1975 cells = test: CellTiter-Glo cell viability, NCI-H1975; details: Homo sapiens, 72 h
Procedure: as §1, §2, §3, §4, §5, §6, §7, §8

HuT 78 cells = test: CellTiter-Glo cell viability, HuT 78; details: Homo sapiens, HuT78, 72 h
Procedure: as §1, §2, §3, §4, §5, §6, §7, §8

[1] = top conc. 10 μM Compound 121, 100 μM cisplatin

Cc1cc(N2CCOC[C@@H]2C)ccc1-c1ccc(CC(=O)NCc2ccc(F)cc2)nc1 [Compound 121]
GI50 (HCT-15 cells; read-out: Absolute GI50): 5 nM
IC50 (HCT-15 cells; read-out: Absolute IC50): 6 nM
inhibition at 10 µM (HCT-15 cells; [1]): 96.8%
GI50 (AsPC-1 cells; read-out: Absolute GI50): 12 nM
IC50 (AsPC-1 cells; read-out: Absolute IC50): > 10000 nM
inhibition at 10 µM (AsPC-1 cells; [1]): 51.2%
GI50 (NCI-H209 cells; read-out: Absolute GI50): 17 nM
IC50 (NCI-H209 cells; read-out: Absolute IC50): 20 nM
inhibition at 10 µM (NCI-H209 cells; [1]): 73.7%
GI50 (HT-29 cells; read-out: Absolute GI50): 4 nM
IC50 (HT-29 cells; read-out: Absolute IC50): 4 nM
inhibition at 10 µM (HT-29 cells; [1]): 78.5%
GI50 (MDA-MB-453 cells; read-out: Absolute GI50): 4 nM
IC50 (MDA-MB-453 cells; read-out: Absolute IC50): 4 nM
inhibition at 10 µM (MDA-MB-453 cells; [1]): 67.5%
GI50 (MX-1 cells; read-out: Absolute GI50): 11 nM
IC50 (MX-1 cells; read-out: Absolute IC50): 18 nM
inhibition at 10 µM (MX-1 cells; [1]): 66.8%
GI50 (AN3 CA cells; read-out: Absolute GI50): 5 nM
IC50 (AN3 CA cells; read-out: Absolute IC50): 5 nM
inhibition at 10 µM (AN3 CA cells; [1]): 98.6%
GI50 (786-O cells; read-out: Absolute GI50): 5 nM
IC50 (786-O cells; read-out: Absolute IC50): 5 nM
inhibition at 10 µM (786-O cells; [1]): 85.3%
GI50 (A-172 cells; read-out: Absolute GI50): 6 nM
IC50 (A-172 cells; read-out: Absolute IC50): 7 nM
inhibition at 10 µM (A-172 cells; [1]): 92.8%
GI50 (HL-60 cells; read-out: Absolute GI50): 7 nM
IC50 (HL-60 cells; read-out: Absolute IC50): 8 nM
inhibition at 10 µM (HL-60 cells; [1]): 99.8%
GI50 (JEG-3 cells; read-out: Absolute GI50): 8 nM
IC50 (JEG-3 cells; read-out: Absolute IC50): 9 nM
inhibition at 10 µM (JEG-3 cells; [1]): 86.5%
GI50 (TJ905 cells; read-out: Absolute GI50): 4 nM
IC50 (TJ905 cells; read-out: Absolute IC50): 4 nM
inhibition at 10 µM (TJ905 cells; [1]): 70%
GI50 (KARPAS-299 cells; read-out: Absolute GI50): 6 nM
IC50 (KARPAS-299 cells; read-out: Absolute IC50): 6 nM
inhibition at 10 µM (KARPAS-299 cells; [1]): 99.4%
GI50 (SK-N-FI cells; read-out: Absolute GI50): 3 nM
IC50 (SK-N-FI cells; read-out: Absolute IC50): 4 nM
inhibition at 10 µM (SK-N-FI cells; [1]): 91.4%
GI50 (FaDu cells; read-out: Absolute GI50): 7 nM
IC50 (FaDu cells; read-out: Absolute IC50): 8 nM
inhibition at 10 µM (FaDu cells; [1]): 85.9%
GI50 (HT-1376 cells; read-out: Absolute GI50): 6 nM
IC50 (HT-1376 cells; read-out: Absolute IC50): 9 nM
inhibition at 10 µM (HT-1376 cells; [1]): 53%
GI50 (OVCAR-3 cells; read-out: Absolute GI50): 5 nM
IC50 (OVCAR-3 cells; read-out: Absolute IC50): 6 nM
inhibition at 10 µM (OVCAR-3 cells; [1]): 64.8%
GI50 (HeLa cells; read-out: Absolute GI50): 4 nM
IC50 (HeLa cells; read-out: Absolute IC50): 4 nM
inhibition at 10 µM (HeLa cells; [1]): 89.5%
GI50 (HuCCT1 cells; read-out: Absolute GI50): 4 nM
IC50 (HuCCT1 cells; read-out: Absolute IC50): 4 nM
inhibition at 10 µM (HuCCT1 cells; [1]): 54%
GI50 (NCI-H1975 cells; read-out: Absolute GI50): 6 nM
IC50 (NCI-H1975 cells; read-out: Absolute IC50): 6 nM
inhibition at 10 µM (NCI-H1975 cells; [1]): 83.7%
GI50 (HuT 78 cells; read-out: Absolute GI50): 8 nM
IC50 (HuT 78 cells; read-out: Absolute IC50): 9 nM
inhibition at 10 µM (HuT 78 cells; [1]): 95.2%
